{"source": "patent US9060997B2", "about": "“Antifolate compounds for the treatment of melanoma” (UNIVERSIDAD DE MURCIA, priority 2007, dated 2015)", "tested_on": "FRα mRNA", "experiment": "FRα expression in SkMel-28 (real-time PCR, RT-PCR)", "format": "cell-based, human", "conditions": "SkMel-28, 50 μM", "procedure": "PolyA+ mRNA from human adult skin was purchased from Invitrogen. SkMel-28 and HEM polyA+ mRNA was extracted from 5×10^6 cells using the Illustra Quick Prep Micro mRNA purification kit (GE Healthcare). mRNA (200 ng) was used to synthesize cDNA using SuperScript First-Strand Synthesis System (Invitrogen). PCR amplification of 2 μL of the cDNA strand generated was carried out in a total volume of 50 μL using an Eppendorf Mastercycler Thermal Cycler. Samples were amplified by 40 cycles at 95° C. (1 min), 62° C. (1 min) and 72° C. (1 min). The amplified PCR products were subjected to electrophoresis in 3% agarose gel and stained with ethidium bromide.\nPrimers were designer using Primer Express version 2.0 software (Applied Biosystems, Foster City, Calif.) and synthesized by Invitrogen. […] Amplification of target gene sequences were compared against serial dilutions of know quantities of their purified cDNA fragments, and normalized to the abundance of the house-keeping gene β-actin."}
{"molecule": "COc1cc(C(=O)O[C@@H]2Cc3c(O)cc(O)cc3O[C@@H]2c2ccc(O)c(O)c2)cc(OC)c1OC", "note": "[TMECG, 3-O-(3,4,5-trimethoxybenzoyl)-(−)-epicatechin]", "values": [{"measurement": "mature FRα mRNA (RT-PCR)", "setting": "3 days", "value": "partially restored the levels of mature FRα mRNA"}, {"measurement": "FRα expression (exon 5 region, real-time PCR)", "setting": "5 days of treatment", "value": "no apparent effect on its expression"}]}
